Reference: patent US20090252834A1, “Compositions comprising glucose anti-metabolites” (priority 2004, published 2009)
One block for each molecule: values may come before it.

Columns and labels:
rodents = conditions: long-term; cited from earlier work
[1] = high doses; cited from earlier work
[2] = injected into a rat; cited from earlier work
rats [3] = conditions: by injection, in rats; cited from earlier work
[4] = in contrast with 2-deoxy-D-glucose; cited from earlier work
rats [5] = conditions: cited from earlier work
mice = assay: Mice fed a diet containing mannoheptulose; format: in vivo
From the text: (§1) Both of these endpoints are closely related to altered glucose and/or carbohydrate metabolism, similar to that elicited by dietary caloric restriction.

[6] = Pharmacokinetics of mannoheptulose, twice daily in a nutritionally-balanced composition, older Labrador Retrievers; format: in vivo, Labrador Retriever dogs; conditions: 2 mg/kg; for half-life: female, Labrador Retriever, dog, plasma, oral
Method: The pharmacokinetics of mannoheptulose can be determined in ten adult, female Labrador Retriever dogs fed a nutritionally-balanced composition providing mannoheptulose at levels of 0 or 2 mg/kg of body weight of the dog. Mannoheptulose is provided as avocado extract in the 2 mg/kg diet. The mean age of the dogs is 7.1 years and the age ranges from 5.3 to 8.4 years. Dogs are age-matched across the two composition groups. The average body weight of all dogs is 29 kg and ranges from 25 to 35 kg. The 0 mg/kg composition is fed as a nutritionally-balanced control composition (Eukanuba Senior Maintenance Formula) and it contains no mannoheptulose, avocado extract or avocado meal. The 2 mg/kg composition is the nutritionally-balanced control composition formulated to contain avocado extract to provide mannoheptulose at a dose of 2 mg/kg of body weight of the dog. The amount of composition offered to the dogs is based on feeding guidelines for the control composition and the target weight range and body condition of the dogs. Dogs are fed one-half their daily allotment of composition at 0730 and the remaining half at 1330. Dogs 1, 2, 3, 4 and 5 are fed the composition containing 2 mg/kg mannoheptulose and dogs 6, 7, 8, 9 and 10 are fed the composition containing 0 mg/kg mannoheptulose. Pharmacokinetics of mannoheptulose following twice daily administration of mannoheptulose in a nutritionally-balanced composition is determined by collecting serial blood samples (3 mL) from each dog using a Vacutainer blood collection system and jugular venipuncture. […] Plasma mannoheptulose concentrations are measured using high-performance liquid chromatography tandem mass spectrometry as described herein below.
(§2) A one-compartment model is used to calculate mannoheptulose pharmacokinetics based on plasma mannoheptulose levels following twice daily oral administration of mannoheptulose in a nutritionally-balanced composition (PV(t)). The model is: PV(t)=dose/(a·BW)e^−kt where: a=mannoheptulose pool size (dose/(enrichment at to)), BW=body weight, k=rate constant of elimination (In Et−1n E0)/−t, and t=time.
(§3) High performance liquid chromatography tandem mass spectrometry (HPLC/MS/MS) is utilized to determine the amount of mannoheptulose present in the plasma of adult dogs. D-mannoheptulose and its chemical analog internal standard (D7-glucose) are isolated from dog plasma by a protein precipitation procedure (described herein below) using a 96-well format. The analyte and internal standard are subjected to reverse-phase high performance liquid chromatographic (HPLC) analysis on a polymeric amino column (2.1×150 mm, 5-μm particles). Detection and quantitation is by mass spectrometry (MS) operating under multiple reaction monitoring MS/MS conditions. Concentrations of D-mannoheptulose in dog plasma can be quantitated from approximately 20 to 5000 ng/mL. The assay requires a 0.1 mL aliquot of dog plasma harvested from a Na2EDTA anti-coagulant blood collection tube. Specimen concentrations are determined by back-calculation using a weighted (1/x^2) linear regression of a calibration curve generated from prepared D-mannoheptulose calibration standards.

[7] = Pharmacokinetics of mannoheptulose, once daily in a nutritionally-balanced composition, adult Labrador Retrievers; format: in vivo, Labrador Retriever dogs
Method: The pharmacokinetics of mannoheptulose can be determined in six adult, male Labrador Retriever dogs fed a nutritionally-balanced composition providing mannoheptulose at levels of 0, 1 or 2 mg/kg of body weight of the dog. Mannoheptulose is provided as an enriched source of avocado extract in the 1 and 2 mg/kg diets. The mean age of the dogs is 4.2 years and the age ranges from 3.3 to 6.1 years. The average body weight of all dogs is 33 kg and the body weight ranges from 28 to 36 kg. Dogs are adapted for 14 days to a nutritionally-balanced control composition (Eukanuba Senior Maintenance Formula) containing no mannoheptulose, avocado extract or avocado meal (0 mg/kg mannoheptulose). The two compositions containing mannoheptulose are the nutritionally-balanced control composition formulated with avocado extract to provide a mannoheptulose dose of 1 or 2 mg/kg of body weight when fed to a dog. The amount of composition offered to the dogs is based on feeding guidelines for the control composition and the target weight range and body condition of the dogs. After 14 days, dogs are fed one of the three compositions for 9 days. On day 9, the dogs are fed their daily allotment of composition as a single meal at 0730. Dog 1 and dog 2 are fed the control composition containing 0 mg/kg mannoheptulose, dog 3 and dog 4 are fed the composition containing 1 mg/kg mannoheptulose, and dog 5 and dog 6 are fed the composition containing 2 mg/kg mannoheptulose. Pharmacokinetics of mannoheptulose following once daily administration of mannoheptulose in a nutritionally-balanced composition is determined by collecting serial blood samples (3 mL) from each dog on day 9 using a Vacutainer blood collection system and jugular venipuncture. Blood samples are collected at −30, 0, 30, 60, 90, 120, 240, 360, 480, 600, 720 and 1,440 minutes relative to each dog receiving their entire daily allotment of composition as a single meal. Plasma mannoheptulose concentrations are measured using high-performance liquid chromatography tandem mass spectrometry as described herein below.
as §2, with “once” for “twice”, “a mannoheptulose” for “a=mannoheptulose”, “t=time. Area under each plasma mannoheptulose curve is determined using a one-way, repeated measures analysis of variance (GraphPad Prism version 4.00 for Windows).” for “t=time.”
as §3, with “The analyte and internal standard are subjected to reverse-phase high performance liquid chromatographic (HPLC) analysis on a polymeric amino column (2.1×150 mm, 5-μm particles).” left out, “The assay requires a 0.1 mL aliquot of dog plasma harvested from a Na2EDTA anti-coagulant blood collection tube.” left out

[8] = rats, cited from earlier work
[9] = tested on: fruit flies and/or nematodes; assay: Lifespan of fruit flies and/or nematodes fed mannoheptulose; format: in vivo
From the text: as §1

[10] = tested on: older Labrador Retrievers; assay: ADL-Table (jumping onto table platforms) of older dogs; format: in vivo, Labrador Retriever dogs; conditions: 2 mg/kg, across all four quarters
Method: (§4) A total of 39 older Labrador Retrievers are fed a nutritionally-balanced composition providing mannoheptulose at levels of 0 or 2 mg/kg of body weight of the dog. Average age of the dogs (12 neutered males, 27 spayed females) at the start of a 4-year study is 6.7 years with a range of 5.1 to 8.2 years of age for the youngest and oldest dog within the cohort, respectively. The 0 mg/kg composition is fed as a nutritionally-balanced control composition (Eukanuba Senior Maintenance Formula) and it contains no mannoheptulose, avocado extract or avocado meal. The 2 mg/kg composition is the nutritionally-balanced control composition formulated with avocado extract to provide mannoheptulose at a dose of 2 mg/kg body weight of the dog. The nutritionally-balanced composition containing 0 mg/kg mannoheptulose is referred to as Diet 1 within this Example. The nutritionally-balanced composition containing 2 mg/kg mannoheptulose is referred to as Diet 2 within this Example. […]
(§5) Shoulder height of each individual dog is measured using a tape measure and recorded. […]
(§6) The ADL-Table activity requires the dog to jump on to and down from the platform of four tables of graduated heights, starting with the lowest table height first. […] For both activities, dogs are scored for the number of attempts at each graduated height and the successful completion of each height. […]

[11] = tested on: older Labrador Retrievers; assay: ADL-Jump (jumping over hurdles) of older dogs; format: in vivo, Labrador Retriever dogs; conditions: 2 mg/kg, across all four quarters
Method: as §4, §5, §6

[12] = cited from earlier work
isolated rat hepatocytes = conditions: cited from earlier work
[13] = twice daily, after the afternoon meal
[14] = twice daily, after the morning meal

Compound: O=CC[C@@H](O)[C@H](O)[C@H](O)CO [2-deoxy-D-glucose]
metabolic hallmarks of caloric restriction (reduced body temperature, weight loss, lower fasting insulin levels) (rodents): can mimic some of the major metabolic hallmarks of caloric restriction | side effects and toxicity [1]: significant untoward side effects and toxicity have been observed

Compound: O=C[C@H](O)[C@@H](O)[C@H](O)[C@H](S)CO [5-Thioglucose, 5-thio-D-glucose]
5-thioglucose excreted unchanged in urine [2]: 97% | LD50 (rats [3]): 14000 mg/kg

Compound: CO[C@@H]([C@H](O)[C@H](O)CO)[C@@H](O)C=O [3-O-methylglucose]
metabolism of the glucose analog [4]: not metabolized | responses to administration compared with 2-deoxyglucose (rats [5]): about seven times weaker

half-life [6, 13]: 5.63 h | half-life [6, 14]: 5.42 h | order of plasma kinetics ([6]; twice daily oral): first order kinetics | return of plasma mannoheptulose to undetectable levels ([6]; twice daily): by the following morning | turnover time [6, 13]: 3.90 h | turnover time [6, 14]: 7.8 h | time to second peak in plasma mannoheptulose after afternoon meal ([6]; twice daily, afternoon meal): 4 h | time to peak plasma mannoheptulose levels after initial feeding ([6]; twice daily, morning meal): 4 h | response of plasma mannoheptulose levels to dietary mannoheptulose levels ([7]; 0, 1, 2 mg/kg): dose-dependent manner | time for plasma mannoheptulose to return to non-detectable levels ([7]; after consumption of the single daily meal): ≤ 24 h | half-life ([7]; male, Labrador Retriever, dog, plasma, once daily oral, 2 mg/kg, mathematical modeling): 6.25 h | turnover time ([7]; once daily oral, 2 mg/kg, mathematical modeling): 9.0 h | order of plasma kinetics ([7]; once daily oral, 1 or 2 mg/kg): first order kinetics
Compound: O=C(CO)[C@@H](O)[C@@H](O)[C@H](O)[C@H](O)CO [mannoheptulose]
body weight (mice): slightly reduced body weight | plasma insulin levels (mice): reduced plasma insulin levels | injected mannoheptulose remained in the body ([8]; a day after the injection): 5% | injected mannoheptulose excreted unchanged ([8]; injection): 66% | injected mannoheptulose metabolized ([8]; injection): 29% | lifespan extension [9]: ~50% | percentage of older dogs successfully jumping onto platforms vs composition devoid of mannoheptulose [10]: a greater percentage of older dogs can successfully jump onto platforms that are 70, 80, 90 and 100% of their shoulder height | percentage of older dogs successfully jumping heights vs composition devoid of mannoheptulose [11]: a greater percentage of older dogs are able to successfully jump all heights | mannoheptulose ingested appearing in urine ([12]; after oral administration): About 5% | safety of oral administration ([12]; humans, doses of 10 grams, orally): safely administered

Compound: OC[C@H]1O[C@H](CO)[C@@H](O)[C@@H]1O [2,5-Anhydro-D-mannitol, 2,5-anhydro-D-mannitol]
glucose formation and utilization (isolated rat hepatocytes): interfere in glucose formation and utilization
